The text below walks through data of ChEMBL document CHEMBL1149136, “Design and syntheses of 1,6-naphthalene derivatives as selective HCMV protease inhibitors” (J Med Chem, 2004).

Molecules are shown by their SMILES.

Test [1] is described as follows: Inhibitory concentration against elastase. The test is classed as functional.
For test [2], the target named is T1, Capsid scaffolding protein (Human cytomegalovirus (strain AD169) (HHV-5) (Human herpesvirus 5), UniProt P16753).
T1 sequence (P16753 whole entry): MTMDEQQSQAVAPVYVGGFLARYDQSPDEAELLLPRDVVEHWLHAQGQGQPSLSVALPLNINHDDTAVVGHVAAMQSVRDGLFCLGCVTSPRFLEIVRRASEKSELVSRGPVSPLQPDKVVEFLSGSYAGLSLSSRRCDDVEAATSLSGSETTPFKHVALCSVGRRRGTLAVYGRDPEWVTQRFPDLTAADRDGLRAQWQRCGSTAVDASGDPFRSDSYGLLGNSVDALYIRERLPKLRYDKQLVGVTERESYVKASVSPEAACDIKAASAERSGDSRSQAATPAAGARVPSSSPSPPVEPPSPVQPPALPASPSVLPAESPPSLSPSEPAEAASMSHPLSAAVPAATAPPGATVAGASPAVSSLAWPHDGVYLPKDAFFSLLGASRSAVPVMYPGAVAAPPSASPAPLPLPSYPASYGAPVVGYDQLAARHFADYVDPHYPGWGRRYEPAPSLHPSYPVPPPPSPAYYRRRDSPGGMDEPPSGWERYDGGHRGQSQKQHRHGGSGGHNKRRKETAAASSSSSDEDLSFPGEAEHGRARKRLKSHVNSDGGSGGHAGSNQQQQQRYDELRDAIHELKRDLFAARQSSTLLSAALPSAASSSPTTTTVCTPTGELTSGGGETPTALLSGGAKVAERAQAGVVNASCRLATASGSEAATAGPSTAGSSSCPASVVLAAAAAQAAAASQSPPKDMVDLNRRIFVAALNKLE
In words: Inhibitory concentration against HCMV protease. Format: functional, Human herpesvirus 5 strain AD169.

The nature of test [3]: Compound was tested for inhibition of chymotrypsinogen.
Test [4] deals with Serine protease 1 (Homo sapiens) (UniProt P07477). In words: Compound was tested for inhibition of trypsin.
Sequence of Serine protease 1 (Homo sapiens) (P07477 whole entry): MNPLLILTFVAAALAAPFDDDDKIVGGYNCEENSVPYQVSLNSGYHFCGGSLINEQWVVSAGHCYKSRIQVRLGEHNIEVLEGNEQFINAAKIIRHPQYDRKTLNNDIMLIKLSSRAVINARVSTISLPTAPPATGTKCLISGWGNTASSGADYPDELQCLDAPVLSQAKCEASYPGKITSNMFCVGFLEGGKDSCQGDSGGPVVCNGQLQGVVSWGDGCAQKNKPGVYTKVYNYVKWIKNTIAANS

For `O=S(=O)(Nc1ccc2c(/C=C/c3ccc4ccccc4n3)cccc2c1)C(F)(F)F`, the values for the IC50 in test [1] and in test [2] were greater than 50 µM and 9.5 µM, respectively.

`O=S(=O)(Nc1ccc2c(/C=C/c3ccc4cc(Cl)ccc4n3)cccc2c1)C(F)(F)F`: the IC50 in test [1] was greater than 50 µM; in test [2], 3.2 µM.

Consider `O=S(=O)(Nc1ccc2c(/C=C/c3ccc(Cl)cc3)cccc2c1)C(F)(F)F`, for which the IC50 in test [1] was greater than 50 µM; in test [2], 4.3 µM.

Regarding `O=C(O)c1ccc(CNc2ccc3c(COc4cccc(Cl)c4)cccc3c2)cc1`, the figures for the Activity in test [3] and in test [4] were greater than 50 µM and greater than 80 µM, respectively. The compound also displayed an IC50 in test [2] of 3.1 µM.

As for `Cc1ccc(S(=O)(=O)NC(=O)Nc2ccc3c(/C=C/c4ccc5ccc(Cl)cc5n4)cccc3c2)cc1`, the IC50 in test [2] stood at 8.3 µM.

The compound `O=C(Nc1ccc2c(/C=C/c3ccc4ccc(Cl)cc4n3)cccc2c1)NS(=O)(=O)c1ccc(Cl)cc1` showed an IC50 in test [2] of 4.7 µM.

On to `O=C(Nc1ccc2c(/C=C/c3ccc4ccc(Cl)cc4n3)cccc2c1)c1ccccc1`, for which the IC50 in test [2] was greater than 50 µM.

Turning to `O=S(=O)(Nc1ccc2c(/C=C/c3ccc4ccc(Cl)cc4n3)cccc2c1)C(F)(F)F`, the IC50 in test [1] is greater than 50 µM; in test [2], 15.1 µM.

With `O=C(O)c1ccc(CNc2ccc3c(/C=C/c4ccc5ccc(Cl)cc5n4)cccc3c2)cc1`, in test [2], the IC50 was determined as 2.7 µM.

For the compound `O=S(=O)(Nc1ccc2c(/C=C/c3cccc(C(F)(F)F)c3)cccc2c1)C(F)(F)F`, the IC50 was greater than 50 µM in test [1] and 6.5 µM in test [2].

`O=C(Nc1ccc2c(/C=C/c3ccc4ccc(Cl)cc4n3)cccc2c1)NS(=O)(=O)c1ccccc1`: the IC50 in test [2] amounted to 6.7 µM.

In the case of `O=S(=O)(Nc1ccc2c(/C=C/c3ccc4cccc(Cl)c4n3)cccc2c1)C(F)(F)F`, the IC50 was greater than 50 µM in test [1] and 3.2 µM in test [2].

In test [2], `Nc1ccc2c(/C=C/c3ccc4ccc(Cl)cc4n3)cccc2c1` returned an IC50 greater than 50 µM.

In the case of `O=C(O)c1ccc(C(=O)Nc2ccc3c(OCc4cccc(Br)c4)cccc3c2)cc1`, the Activity was greater than 50 µM in test [3] and greater than 80 µM in test [4]. The IC50 in test [2] is 6.1 µM.

Take `CC(=O)Nc1ccc2c(/C=C/c3ccc4cc(Cl)ccc4n3)cccc2c1`: inhibition in test [2] was half-maximal at 43 µM (IC50).

Compound `O=C(Nc1ccc2c(/C=C/c3ccc4cc(Cl)ccc4n3)cccc2c1)Oc1ccccc1` returned an IC50 in test [2] greater than 50 µM.

On to `O=C(O)c1ccc(C(=O)Nc2ccc3c(OCc4cccc(Cl)c4)cccc3c2)cc1`, for which the Activity was greater than 50 µM in test [3] and greater than 80 µM in test [4]. Further, half-maximal inhibition in test [2] (IC50) required 5.1 µM.

As for `O=C(O)c1ccc(C(=O)Nc2ccc3c(OCc4cccc(C(F)(F)F)c4)cccc3c2)cc1`, the values for the Activity in test [3] and in test [4] were greater than 50 µM and greater than 80 µM, respectively. Besides, it took 7.4 µM to reach half-maximal inhibition in test [2] (IC50).

Turning to `O=S(=O)(Nc1ccc2c(/C=C/c3ccccc3)cccc2c1)C(F)(F)F`, the values for the IC50 in test [1] and in test [2] were greater than 50 µM and 7.5 µM, respectively.

Regarding `O=C(O)c1ccc(C(=O)Nc2ccc3c(COc4ccc(Br)cc4)cccc3c2)cc1`, in test [2], inhibition was half-maximal at 21.3 µM (IC50).

`O=S(=O)(Nc1ccc2c(/C=C/c3ccccn3)cccc2c1)C(F)(F)F` gave an Activity in test [3] greater than 160 µM. Moreover, the figures for the IC50 in test [1] and in test [2] were greater than 50 µM and 66 µM, respectively.

With `O=C(O)c1ccc(C(=O)Nc2ccc3c(COc4cccc(Cl)c4)cccc3c2)cc1`, 15.3 µM corresponded to half-maximal inhibition in test [2] (IC50).

Consider `CS(=O)(=O)Nc1ccc2c(/C=C/c3ccc4cc(Cl)ccc4n3)cccc2c1`, for which the IC50 in test [2] is greater than 50 µM.

`COc1cccc(/C=C/c2cccc3cc(NS(=O)(=O)C(F)(F)F)ccc23)c1`: the IC50 is greater than 50 µM in test [1] and 6.6 µM in test [2].

In test [2], `O=C(O)c1ccc(CNc2ccc3c(/C=C/c4cccc(C(F)(F)F)c4)cccc3c2)cc1` came in with an IC50 of 6.9 µM.

On to `O=S(=O)(Nc1ccc2c(/C=C/c3cc(Cl)c4ccccc4n3)cccc2c1)C(F)(F)F`, for which the IC50 is greater than 50 µM in test [1] and 10.5 µM in test [2].

As to `Cc1ccc2nc(/C=C/c3cccc4cc(NS(=O)(=O)C(F)(F)F)ccc34)ccc2c1`, the results for the IC50 in test [1] and in test [2] were greater than 50 µM and 6.3 µM, respectively.

In the case of `O=C(O)c1ccc(CNc2ccc3c(COc4ccc(Br)cc4)cccc3c2)cc1`, the Activity in test [3] is greater than 50 µM; in test [4] it was greater than 80 µM. This compound returned an IC50 in test [2] of 2.8 µM.

For the compound `O=C(O)c1ccc(C(=O)Nc2ccc3c(/C=C/c4ccc5ccc(Cl)cc5n4)cccc3c2)cc1`, the midpoint of inhibition in test [2], the IC50, lay at 17.4 µM.

For the compound `CN(C)c1ccc2nc(/C=C/c3cccc4cc(NS(=O)(=O)C(F)(F)F)ccc34)ccc2c1`, the 50% inhibitory concentration (IC50) in test [1] was greater than 50 µM; in test [2], 3.7 µM.

For `O=S(=O)(Nc1ccc2c(/C=C/c3ccc4ccccc4c3)cccc2c1)C(F)(F)F`, the IC50 in test [1] is greater than 50 µM; in test [2] it was 15 µM.

As for `O=C(O)c1ccc(CNc2ccc3c(COc4ccccc4)cccc3c2)cc1`, the figures for the Activity in test [3] and in test [4] were greater than 50 µM and greater than 80 µM, respectively. Moreover, in test [2], the IC50 was determined as 4.8 µM.

With `O=C(O)c1ccc(C(=O)Nc2ccc3c(COc4cccc(C(F)(F)F)c4)cccc3c2)cc1`, the IC50 in test [2] stood at 15.2 µM.

In test [2], `O=C(O)c1ccc(C(=O)Nc2ccc3c(/C=C/c4cccc(C(F)(F)F)c4)cccc3c2)cc1` returned an IC50 of 6.9 µM.

In the case of `O=C(O)c1ccc2c(/C=C/c3ccc4ccccc4n3)cccc2c1`, the IC50 in test [2] was greater than 50 µM.

In test [2], `CN(c1ccc2c(/C=C/c3ccc4cc(Cl)ccc4n3)cccc2c1)S(=O)(=O)C(F)(F)F` gave an IC50 greater than 50 µM.

With `COc1ccc2nc(/C=C/c3cccc4cc(NS(=O)(=O)C(F)(F)F)ccc34)ccc2c1`, the IC50 was greater than 50 µM in test [1] and 3.4 µM in test [2].
